Data set [1] concerns Hepatitis A virus (HAV) strain HM-175. As to the kind of experiment: Virucidal effect of peptides on HAV (residual infectivity by TCID50 titration on Frp3 cells). Type of data set: cell-based. As to conditions: for Viral Titre after Treatment: titration on Frp3 cells; for Viral Titre after Treatment / LRV (log reduction value): mean ± SD, triplicate. The text has this: (§1) Murine norovirus strain 1 (MNV-1) was used as a surrogate for human norovirus (NoV). The virus was replicated in RAW 264.7 cells (murine macrophage cell line) cultured in Dulbecco’s modified Eagle’s medium (DMEM) supplemented with 1% glutamine, 1% non-essential amino acids, and 2% fetal bovine serum (FBS). Hepatitis A virus (HAV) strain HM-175 was replicated in Frp3 cells (non-human primate cell line derived from fetal kidney) cultured in minimum essential medium (MEM) with Earle’s salts supplemented with 1% glutamine, 2% non-essential amino acids, and 2% FBS. Both viruses were incubated in 5% CO2 at 37 °C. All cell culture media were provided by EuroClone (Milan, Italy). The viral suspensions were prepared by freeze and thaw lysis (1 cycle for MNV-1 and 3 cycles for HAV) of infected monolayers, clarified using low-speed centrifugation (800× g) to remove residual cell debris, then divided in aliquots, and stored at −80 °C until use.
(§2) Solutions 40 µM and 80 µM of each peptide of the panel (RiLK1, RiLK3, RiLK30, 1018-K6, MTP1, and AVP2) were chosen for the virucidal tests. HAV and MNV-1 were assayed at a concentration of 4.7 ± 0.2 log TCID50/mL and 4.5 ± 0.2 log TCID50/mL, respectively. The suspensions containing the peptides and viruses were incubated for 1 h at room temperature (RT,20 ± 2 °C) and 4 °C. These temperatures were chosen to simulate the use of sanitizing solutions in food production/processing environments. Residual viral infectivity was evaluated by titration (TCID50/mL) on Frp3 cells for HAV and on RAW 264.7 cells for MNV-1. Untreated HAV and MNV-1 suspensions and 40 µM and 80 µM AMP solutions, incubated at the same conditions, were used as controls. Each treatment condition was assayed in triplicate. For titration, 100 µL of serial tenfold dilutions of each sample were assayed in 24-well tissue culture plates containing 24–48 h cell monolayers and incubated for 1 h in 5% CO2 at 37 °C. After that, the wells were washed twice with 200 µL of PBS, and 500 µL of DMEM/MEM, supplemented with 2% of FBS, were was added to each well; MNV-1 and HAV incubations were carried for up to 6 days and 14 days, respectively, in 5% CO2 at 37 °C with daily visual inspection to determine the cytopathic effect. The virucidal efficacy of AMPs was estimated by comparing the titers of treated and untreated viral suspensions.
(§3) For each treatment, the average and standard deviation of the triplicate analyses were calculated. The virucidal effects of AMPs was assessed by calculating the log reduction value (LRV), i.e., the difference between the infectious titer (log-transformed) of untreated versus treated samples. The statistical significance of differences between treated and untreated samples was determined through one-way analysis of variance (ANOVA) with Bonferroni post hoc comparisons, with a significance level of p < 0.05 (GraphPad Prism v9.5.0, software San Diego, CA, USA).

The test system of data set [2] is Murine norovirus strain 1 (MNV-1). Type of data set: cell-based. As to conditions: for Viral Titre after Treatment: titration on RAW 264.7 cells; for Viral Titre after Treatment / LRV (log reduction value): mean ± SD, triplicate.
From the text: as §1, §2, §3

For another data set, the system named is Salmonella Napoli. The experiment in a line: Antibacterial assay, Salmonella Napoli. Type of data set: cell-based. The conditions noted are these: even at the highest concentration tested (80 µM), 6 h at 37 °C. The text has this: (§4) The monophasic variant of Salmonella Typhimurium, Salmonella Napoli, and Campylobacter jejuni were isolated by the Laboratory of Microbiological Food Control—Department of Food Microbiology of the Istituto Zooprofilattico Sperimentale del Mezzogiorno in Portici (Naples, Italy) in raw and processed foodstuffs of animal origin. Specifically, the monophasic variant of S. Typhimurium and S. Napoli were isolated from bivalve mollusks, while C. jejuni was isolated from poultry meat. Bacterial cells were cultured at 37 °C in the appropriate culture media (S. Typhimurium and S. Napoli in buffered peptone water (Thermo Fisher, Milan, Italy) and C. jejuni in Bolton Broth (Oxoid, Madrid, Spain)) until collection and then diluted in fresh broth to a final concentration of 1.5 × 10^3 colony forming units (CFUs)/mL. Thereafter, peptide stock solutions in DMSO were added to the bacterial suspension at the same concentrations used in the virucidal assays (40 and 80 µM) and incubated at 37 °C for 6 h. Samples containing only cell suspension and DMSO were used as controls. […]

A further data set concerns Campylobacter jejuni. The class given is cell-based. The conditions noted are these: peptide 40 and 80 µM, 6 h at 37 °C.
From the text: as §4

For data set [3] the following is noted: pH 2; cited from earlier work. Here is the method: In this context, to acquire important information on how the conformational properties of peptides might influence the structure–function relationships and their distinct membrane interaction profiles, the propensity of the new peptides, RiLK30 and AVP2, to adopt a defined secondary structure and to undergo conformational changes were examined by circular dichroism and fluorescence spectroscopy. These analyses were performed in the presence of a negatively charged SDS that is commonly used as a biomimetic membrane model to study the structural features of membranotropic molecules. In previous ...

[4] abbreviates: HAV + peptide 40 µM, 1 h at RT (20 ± 2 °C).
Setting [5] is: HAV + peptide 80 µM, 1 h at RT (20 ± 2 °C).
The mark [6] stands for this setting: MNV-1 + peptide 40 µM, 1 h at 4 °C.
[7] abbreviates: MNV-1 + peptide 40 µM, 1 h at RT (20 ± 2 °C).
[8] abbreviates: MNV-1 + peptide 80 µM, 1 h at RT (20 ± 2 °C).

Where two headings read alike, the source gives them in different places.

Here are results for one substance from PMC11124387, “A Reliable Multifaceted Solution against Foodborne Viral Infections: The Case of RiLK1 Decapeptide” (Molecules, 2024).

Take “KVSGVLFGTGLWVAL-NH2 [MTP1, previously designed 15-residue antimicrobial peptide, C-terminally amidated]”: the “Viral Titre after Treatment” value was determined as 3.8 ± 0.2 logTCID50/mL in data set [1] (HAV 4.7 ± 0.2 log TCID50/mL + peptide 80 µM, 1 h at 4 °C); 3.6 ± 0.3 logTCID50/mL in data set [1] (HAV + peptide 40 µM, 1 h at 4 °C); 3.2 ± 0.2 logTCID50/mL in data set [1] (setting [4]); 3.5 ± 0.1 logTCID50/mL in data set [1] (setting [5]); 4.5 ± 0.1 logTCID50/mL in data set [2] (MNV-1 4.5 ± 0.2 log TCID50/mL + peptide 80 µM, 1 h at 4 °C); 4.4 ± 0.1 logTCID50/mL in data set [2] (setting [6]). Besides, the “Viral Titre after Treatment” value in data set [2] (setting [7]) and in data set [2] (setting [8]) was 4.5 ± 0.2 logTCID50/mL each time. Moreover, the “LRV (log reduction value)” value is reported as 1.1 ± 0.2 logTCID50/mL in data set [1] (HAV + peptide 40 µM, 1 h at 4 °C, untreated minus treated titre); 1.5 ± 0.4 logTCID50/mL in data set [1] (setting [4]); 0.9 ± 0.4 logTCID50/mL in data set [1] (HAV + peptide 80 µM, 1 h at 4 °C, untreated minus treated titre); 1.2 ± 0.3 logTCID50/mL in data set [1] (setting [5]); 0.1 ± 0.3 logTCID50/mL in data set [2] (setting [6]); 0 ± 0.4 logTCID50/mL in data set [2] (setting [7]). For the same substance, the “LRV (log reduction value)” value came to 0 ± 0.3 logTCID50/mL in data set [2] (MNV-1 + peptide 80 µM, 1 h at 4 °C) and 0 ± 0.4 logTCID50/mL in data set [2] (setting [8]). The “decrease of HAV infectious titer” value in data set [1] (maximum reduction, corresponding to the highest LRV) is on record as “up to 97.3%”. In addition, the “virucidal activity toward MNV-1 (in words)” value in data set [2] (40 and 80 µM, 4 °C and RT) was “no significant effects”. Further, in the data set on Salmonella Napoli, the “bactericidal activity (growth inhibition on selective plates)” value is on record as “no detectable killing effects”. For the same substance, the “inhibitory activity against Campylobacter jejuni (in words)” value in the data set on Campylobacter jejuni is given as “did not display any inhibitory activity”. Also, the structural stability entry in data set [3] is “high structural stability”.
